Where two headings read alike, the source gives them in different places.
Legend:
[1] = tested on: thymidylate synthase (TS); test: Luciferase assay in stably transfected H630-C6 cells (pG3E1-2TBE-Neo); assay type: cell-based, human
Description: FIGS. 3a-3j. RLU production in H630-C6 cells in response to TS inhibitors. H630-C6 cells were evaluated for luciferase activity in response to treatment with the indicated compounds. The cells were exposed to the compounds at the indicated concentrations for 18 hr and luciferase assays were then performed according to the manufacturer's instructions. The mean values of triplicates or quadruplicates are shown along with the standard derivations.
This example describes the stable transfection of cells with the DNA construct of the present invention. To facilitate selection of stable transformants, we added a neomycin-resistance gene to the pG3E1-2TBE (FIG. 1) to generate a new plasmid termed pG3E1-2TBE-Neo as follows. For stable transfection, pG3E1-2TBE-Neo was linearized at the ampicillin resistance gene with Ase I and was introduced into H630 cells as described above. At 24 hrs post-transfection, the cells were exposed to 400 μg/ml of G418 for two weeks. Individual clones were picked at that time and screened for their ability to induce luciferase in response to treatment with 5-FU, a known TS inhibitor. Following selection with G418 and evaluation for changes in luciferase activity after exposure of the cells to 5-FU, the cloned subline H630/pG3E1-2TBE-Neo-L1-2-C6 (H630-C6) was chosen for further study.
The stably transfected H630-C6 cell line was maintained in RPMI 1640 plus 10% dialyzed FBS and 400 μg/ml of geneticin (G418). For luciferase assays, 2×10^4 cells were seeded in each well of a 24-well plate in RPMI 1640 medium plus 10% FBS without G418 and were allowed to attach at least six hr, followed by drug exposure overnight (approximately 18 hr). The cells were then washed with PBS (137 mM NaCl, 2.7 mM KCl, 4.3 mM Na2HPO4, 1.4 mM KH2PO4, pH 7.4), lysed with Passive Lysis Buffer (Promega, Madison) and assayed for luciferase activity using the Luciferase Assay System (Promega, Madison, Wis.) according to the manufacturer's instructions. Relative light units (RLU) were measured with a Lumat LB 9501 luminometer (EG & G Berthold, Wildbad, Germany).
To test H630-C6 as a tool to identify TS modulators three different classes of compounds, i.e., specific or predominantly specific TS inhibitors, agents that inhibit folate pathways or inhibit TS as well as having other targets, and agents that act through TS unrelated sites of action were evaluated for their ability to induce changes in luciferase activity.

[2] = tested on: thymidylate synthase (TS); test: Down-regulation of TS in H630 cells treated with acyl-homoserine lactones (Western blotting); assay type: cell-based, human; details: overnight (approximately 16 hours)
Source text: FIG. 6. A representation of the ability of acyl homoserine lactones to down-regulate TS in H630 cells.
The signaling molecules produced by the rTS signaling pathway cause a decrease in the amount of TS found in cells. These signaling molecules can simulate the effects of the compound 3-oxo-hexanoyl homoserine lactone in activating the receptor for this compound when it is present in a recombinant bacteria. […] This hypothesis was validated by the results of an experiment portrayed in FIG. 6. Accordingly, the down-regulation of TS in H630 (human colon cancer) cells treated with acyl-homoserine lactones was tested. Cells growing in RPMI 1640 culture medium, supplemented with 10% dialyzed fetal bovine serum at 37° C. in an atmosphere of 95:5 air:CO2. The compounds with the structures shown were added to the cells and allowed to incubate overnight (approximately 16 hours). The cells were extracted and TS measured by Western blotting as described. The compounds from top to bottom are: (1) 3-hydroxy butanoyl homoserine lactone, (2) butanoyl homoserine lactone; (3) 3-oxo-hexanoyl homoserine lactone; (4) d, 1-hexanoyl homoserine lactone, and (5) 1-homoserine lactone. Tubulin is shown as a loading standard.

[3] = tested on: thymidylate synthase (TS); test: Evaluation of TS expression by Western blotting in H630-C6 cells; assay type: cell-based, human; details: H630-C6 cells, 18 hr treatment
Description: FIGS. 4a and 4b. Evaluation of TS expression by Western blotting. […] The cells were harvested for Western blots.
This example describes the relationship between TS levels and luciferase production by various known TS inhibitors. Western blotting was performed as previously described (Dolnick and Black, 1996). Briefly, H630-C6 cells were washed with PBS and extracted with RIPA buffer. 10 μg of total protein was resolved by electrophoresis in a 10% SDS-PAGE and was blotted onto a PVDF membrane (Immobilon-P, Millipore, Bedford, Mass.). The membrane was hybridized with rabbit polyclonal antibody against TS (a gift from Dr. Edward Chu, VA Cancer Center, Yale University, West Haven, Conn.) diluted in SuperBlock Blocking Buffer (Pierce, Rockford, Ill.) plus 0.25% Tween 20 for one hour and hybridized with HRP-linked anti-rabbit secondary antibody (Jackson Laboratories) for an additional one hour. The membrane was detected with SuperSignal West Dura Extended Duration Substrate (Pierce, Rockford, Ill.) and was visualized by exposing the blot to Kodak XAR-5 film. […] The resulting signal was detected as described above.
The induction of luciferase activity depends upon the ability to reduce the amount of endogenous TS bound to the TBEs in the recombinant luciferase transcripts. Dissociation of TS from the luciferase reporter mRNA is expected to be accompanied by the removal of TS from TBEs located in other mRNAs as well, such as endogenous TS mRNA. Therefore, an increase in TS is expected to accompany the increase in luciferase. To verify whether a translational mechanism is involved we evaluated the levels of TS from cells treated with the compounds described above by Western blotting.

[4] = tested on: thymidylate synthase (TS); test: Multiwell luciferase assay in RKO colon tumor cell lines containing pG3E1-2TBE-Neo; details: for % C (effect relative to control without 5-FU), RKO clone 1 / % C (effect relative to control without 5-FU), RKO clone 4 / % C (effect relative to control without 5-FU), RKO clone 7 / RLU RKO clone 1 / RLU RKO clone 4 / RLU RKO clone 7: approximately 18 hr
[5] = tested on: thymidylate synthase (TS); test: Luciferase assay in H630 cells transiently transfected with pG3E1-2TBE; assay type: cell-based, human; details: 5-FU 10 μM for 24 hr; H630 cells transfected with pG3E1-2TBE
Description: FIGS. 2a-2c. Activity of the EGR-I promoter and TBEs in pGL3-basic plasmid. FIG. 2a—the EGR-I promoter was added upstream of the luciferase reporter gene of pGL3-basic plasmid as described in Example 1. The resultant construct pG3E1 was transfected into H630 cells and the luciferase assay was performed 24 hr later. Control: mock transfection; pG3E1: 5 μg of pG3E1 plasmid DNA per 2×10^6 cells was used for transfection. RLU: relative light units. In FIGS. 2b and 2c, TS-binding elements were synthesized and added into pG3E1. The pG3E1-2TBE (5 μg) was transfected into six replicate aliquots of H630 cells (2×10^6) and plated separately. After 24 hr, three of transfected samples were treated with 5-FU (10 μM) for an additional 24 hr (FIG. 2c), the cells were then processed for the luciferase assay according to the manufacturer's instructions. Control: mock transfection; pG3E1: transfected with pG3E1; pG3E1+T: transfected with pG3E1-2TBE only (FIG. 2b). P+T+FU: transfected with pG3E1-2TBE and 24 hr following transfection treated with 5-FU (FIG. 2c). Data are the average of triplicate experiments±S.D.
This example describes the transient transfection of cells with the construct of the present invention. […]

Cc1nc2ccc(CN(C)c3ccc(C(=O)N[C@@H](CCC(=O)O)C(=O)O)s3)cc2c(=O)[nH]1 [ZD1694, Raltitrexed]
elevation of luciferase activity ([1]; 100 μM, H630-C6 cells, 18 hr): approximately two-fold
change in luciferase activity (RLU), in words ([1]; H630-C6 cells, 18 hr exposure): increases in luciferase that were comparable

CCCCCC(=O)N[C@H]1CCOC1=O [1-hexanoyl compound]
activity in down-regulating TS relative to the racemic mixture (d, 1) [2]: twice as active
activity of the enantiomers, concluded from the comparison with the racemic mixture [2]: active

CN(Cc1cnc2nc(N)nc(N)c2n1)c1ccc(C(=O)N[C@@H](CCC(=O)O)C(=O)O)cc1 [MTX, methotrexate]
TS protein level by Western blotting [3]: elevated TS protein levels
change in luciferase activity (RLU), in words [1]: increases in luciferase that were comparable
elevation of luciferase activity [1]: approximately two-fold

O=c1[nH]c(=O)n([C@H]2C[C@H](O)[C@@H](CO)O2)cc1C(F)(F)F [TFT, trifluorothymidine]
concentration at which the increase in RLU output plateaued ([1]; H630-C6 cells, 18 hr exposure): 100 nM

O=c1[nH]c(=O)n([C@@H]2O[C@H](CO)[C@@H](O)[C@H]2O)cc1F [FUrd, 5-fluorouridine]
mobility of TS in SDS-PAGE / Western blot [3]: altered the mobility of TS
concentration at which the increase in RLU output plateaued ([1]; H630-C6 cells, 18 hr exposure): 2500 nM

O=c1[nH]c(=O)n([C@H]2C[C@H](O)[C@@H](CO)O2)cc1F [FUdR, 5-fluoro-2′-deoxyuridine]
mobility of TS in SDS-PAGE / Western blot [3]: altered the mobility of TS
concentration at which the increase in RLU output plateaued ([1]; H630-C6 cells, 18 hr exposure): 5 nM

CN[C@@H]1[C@@H](O)[C@@H](O[C@@H]2[C@@H](O)[C@H](O[C@H]3O[C@H]([C@@H](C)O)[C@@H](O)[C@H](O)[C@H]3N)[C@@H](N)C[C@H]2N)OC[C@]1(C)O [G418, geneticin]
TS protein level by Western blotting [3]: inactive

CCCCCC(=O)NC1CCOC1=O (single isomer, unassigned) [d-enantiomer]
activity of the enantiomers, concluded from the comparison with the racemic mixture [2]: inactive

Nc1nc2c([nH]c(=S)n2[C@@H]2O[C@H](CO)[C@@H](O)[C@H]2O)c(=O)[nH]1 [TG, 8-thioguanosine]
TS protein level by Western blotting [3]: did not alter TS protein levels
change in luciferase activity (RLU), in words ([1]; H630-C6 cells, 18 hr exposure): no increase

O=c1[nH]cc(F)c(=O)[nH]1 [5-FU, 5-Fluorouracil]
mobility of TS in SDS-PAGE / Western blot [3]: altered the mobility of TS
lowest concentration at which changes in RLU can be detected ([4]; RKO clones, Table 1): 0.1 µM
% C (effect relative to control without 5-FU), RKO clone 1 ([4]; [5-FU] 0.1 μM): 117%
% C (effect relative to control without 5-FU), RKO clone 4 ([4]; [5-FU] 0.1 μM): 121%
% C (effect relative to control without 5-FU), RKO clone 7 ([4]; [5-FU] 0.1 μM): 120%
RLU RKO clone 1 ([4]; [5-FU] 0.1 μM): 1137 RLU
RLU RKO clone 4 ([4]; [5-FU] 0.1 μM): 1078 RLU
RLU RKO clone 7 ([4]; [5-FU] 0.1 μM): 799 RLU
% C (effect relative to control without 5-FU), RKO clone 1 ([4]; [5-FU] 0.5 μM): 135%
% C (effect relative to control without 5-FU), RKO clone 4 ([4]; [5-FU] 0.5 μM): 112%
% C (effect relative to control without 5-FU), RKO clone 7 ([4]; [5-FU] 0.5 μM): 157%
RLU RKO clone 1 ([4]; [5-FU] 0.5 μM): 1314 RLU
RLU RKO clone 4 ([4]; [5-FU] 0.5 μM): 999 RLU
RLU RKO clone 7 ([4]; [5-FU] 0.5 μM): 1043 RLU
% C (effect relative to control without 5-FU), RKO clone 1 ([4]; [5-FU] 2.0 μM): 140%
% C (effect relative to control without 5-FU), RKO clone 4 ([4]; [5-FU] 2.0 μM): 137%
% C (effect relative to control without 5-FU), RKO clone 7 ([4]; [5-FU] 2.0 μM): 168%
RLU RKO clone 1 ([4]; [5-FU] 2.0 μM): 1356 RLU
RLU RKO clone 4 ([4]; [5-FU] 2.0 μM): 1214 RLU
RLU RKO clone 7 ([4]; [5-FU] 2.0 μM): 1119 RLU
% C (effect relative to control without 5-FU), RKO clone 1 ([4]; [5-FU] 10 μM): 179%
% C (effect relative to control without 5-FU), RKO clone 4 ([4]; [5-FU] 10 μM): 172%
% C (effect relative to control without 5-FU), RKO clone 7 ([4]; [5-FU] 10 μM): 243%
RLU RKO clone 1 ([4]; [5-FU] 10 μM): 1738 RLU
RLU RKO clone 4 ([4]; [5-FU] 10 μM): 1527 RLU
RLU RKO clone 7 ([4]; [5-FU] 10 μM): 1614 RLU
% C (effect relative to control without 5-FU), RKO clone 1 ([4]; [5-FU] 50 μM): 148%
% C (effect relative to control without 5-FU), RKO clone 4 ([4]; [5-FU] 50 μM): 175%
% C (effect relative to control without 5-FU), RKO clone 7 ([4]; [5-FU] 50 μM): 156%
RLU RKO clone 1 ([4]; [5-FU] 50 μM): 1438 RLU
RLU RKO clone 4 ([4]; [5-FU] 50 μM): 1559 RLU
RLU RKO clone 7 ([4]; [5-FU] 50 μM): 1560 RLU
increase in the RLU compared with untreated transfectants [5]: 33±13.8%
concentration at which the increase in RLU output plateaued ([1]; H630-C6 cells, 18 hr exposure): 50000 nM

Nc1ncn([C@@H]2O[C@H](CO)[C@@H](O)[C@H]2O)c(=O)n1 [AC, 5-azacytidine]
TS protein level by Western blotting [3]: did not alter TS protein levels
change in luciferase activity (RLU), in words ([1]; H630-C6 cells, 18 hr exposure): no increase

From patent publication US20040161781A1, “Compositions and methods for identifying thymidylate synthase modulators” (priority 2002, published 2004)
